± gives the uncertainty stated by the source.
Experiment: xn = mol fraction of the nth substance listed

CN(C)c1ccccc1 + COc1ccccc1
viscosity [mPa·s], 101 kPa
Conditions	x1 = 0.1072	x1 = 0.2092	x1 = 0.3052	x1 = 0.406	x1 = 0.5082	x1 = 0.6053	x1 = 0.6916	x1 = 0.7895	x1 = 0.8939
293.15 K	1.123 ± 0.024	1.171 ± 0.025	1.21 ± 0.025	1.247 ± 0.026	1.281 ± 0.027	1.309 ± 0.027	1.331 ± 0.028	1.349 ± 0.028	1.359 ± 0.028
298.15 K	1.039 ± 0.022	1.083 ± 0.023	1.124 ± 0.024	1.159 ± 0.024	1.191 ± 0.025	1.22 ± 0.026	1.241 ± 0.026	1.255 ± 0.026	1.27 ± 0.027
303.15 K	0.957 ± 0.02	0.994 ± 0.021	1.032 ± 0.022	1.064 ± 0.022	1.092 ± 0.023	1.116 ± 0.023	1.135 ± 0.024	1.142 ± 0.024	1.158 ± 0.024
308.15 K	0.887 ± 0.019	0.917 ± 0.019	0.949 ± 0.02	0.98 ± 0.021	1.004 ± 0.021	1.025 ± 0.022	1.036 ± 0.022	1.042 ± 0.022	1.056 ± 0.022
313.15 K	0.811 ± 0.017	0.838 ± 0.018	0.866 ± 0.018	0.897 ± 0.019	0.92 ± 0.019	0.936 ± 0.02	0.947 ± 0.02	0.955 ± 0.02	0.969 ± 0.02
318.15 K	0.767 ± 0.016	0.791 ± 0.017	0.815 ± 0.017	0.845 ± 0.018	0.869 ± 0.018	0.883 ± 0.019	0.889 ± 0.019	0.898 ± 0.019	0.911 ± 0.019
323.15 K	0.709 ± 0.015	0.728 ± 0.015	0.751 ± 0.016	0.778 ± 0.016	0.8 ± 0.017	0.811 ± 0.017	0.814 ± 0.017	0.823 ± 0.017	0.836 ± 0.018

CCC(C)(C)O + CO
298.15 K, 101.33 kPa
Conditions	viscosity [mPa·s]
x2 = 0.1504	3.673 ± 0.03
x2 = 0.2963	3.295 ± 0.027
x2 = 0.3807	2.941 ± 0.024
x2 = 0.4164	2.789 ± 0.023
x2 = 0.4914	2.41 ± 0.021
x2 = 0.6011	1.88 ± 0.018
x2 = 0.7145	1.404 ± 0.015
x2 = 0.7989	1.074 ± 0.013
x2 = 0.8988	0.788 ± 0.012

CCCCC(C)O (configuration not stated) + CN(C)C=O
viscosity [mPa·s], 101 kPa
Conditions	x2 = 0.1088	x2 = 0.1532	x2 = 0.2402	x2 = 0.3448	x2 = 0.441	x2 = 0.5601	x2 = 0.6546	x2 = 0.7434	x2 = 0.843	x2 = 0.9374
298.15 K	3.26 ± 0.07	3.03 ± 0.07	2.7 ± 0.1	2.41 ± 0.05	2.17 ± 0.05	1.87 ± 0.04	1.63 ± 0.04	1.4 ± 0.1	1.17 ± 0.03	0.97 ± 0.02
303.15 K	2.67 ± 0.06	2.49 ± 0.06	2.23 ± 0.05	1.99 ± 0.05	1.79 ± 0.04	1.56 ± 0.04	1.39 ± 0.03	1.23 ± 0.03	1.05 ± 0.02	0.87 ± 0.02
308.15 K	2.19 ± 0.05	2.01 ± 0.05	1.8 ± 0.1	1.61 ± 0.04	1.47 ± 0.03	1.3 ± 0.1	1.18 ± 0.03	1.06 ± 0.02	0.93 ± 0.02	0.8 ± 0.1
313.15 K	1.7 ± 0.1	1.53 ± 0.04	1.36 ± 0.03	1.23 ± 0.03	1.13 ± 0.03	1.03 ± 0.03	0.96 ± 0.02	0.89 ± 0.02	0.81 ± 0.02	0.73 ± 0.02

Source: the CheMixHub viscosity set
